Source: US5116829A, “Steroid compounds” (Kao Corporation, priority 1990, dated 1992)
Where two headings read alike, the source gives them in different places.

Columns and labels:
granuloma = experiment: Anti-inflammatory activity (2): granuloma around embedded filter paper; assay type: in vivo, Wistar male rats; settings: 10^-2 M, 50 μl/paper, after 6 days; for inhibition at 10000 µM: Rattus norvegicus, 144 h, read-out: Granulating Inhibitory Rate (%)
Excerpt: Test Method of Anti-inflammatory Activity (2) Wistar male rats, age 5 weeks, each group consisting of 5-8 rats, were served for the test. […] The paper was embedded into the right back of the rats. Into the left back was embedded an untreated antibiotic test filter paper. After 6 days, the animals were sacrificed by bleeding and the backs were incised to extract each granuloma formed around the filter. The granuloma was dried and weighed. To the right backs of the control group antibiotic test filter papers infiltrated with 50 μl/paper of ethanol and dried were embedded.

edema of rat auricle = experiment: Anti-inflammatory activity (1): croton oil-induced auricle edema; assay type: in vivo, Wistar male rats; settings: 10^-3 M, 800 μl/auricle, 15 seconds, weighed after 6 hours, read-out: Edema inhibitory rate (%)
Procedure: Test Method of Anti-inflammatory Activity (1) […] Wistar male rats, age 5 weeks, each group consisting of 5, were served for the test. The test samples and an inflammation-inducingbase material (control) were infiltrated into circular […]) fixed onto specially prepared tweezers and the right auricles of the animals were put between the tweezers to apply the samples (800 μl/auricle) for 15 seconds at a constant pressure of 500 gw. After 6 hours, the both auricles were punched (.phi. 9 mm) and weighed. An edema inhibitory rate determined by the following equation was taken as an index of the anti-inflammatory activity of the steroid samples. Edema inhibitory rate (%)=100-Y/Z×100 wherein Y is the weight difference (mg) of the right auricle to which the sample drug was applied and the untreated left auricle, and Z is the weight difference (mg) of the right auricle of the rat to which the inflammation-inducing base material was applied and the untreated left auricle.

[1] = Acute toxicity (oral administration); design: species or system ICR mice (male); settings: mouse, in vivo, 14 days after administration, read-out: Viability (%)
Procedure: Acute toxicity (oral administration) of the compound of the present invention was evaluated according to the following method. […]

thymus = experiment: Systemic side effects: thymus weight; assay type: in vivo, ddY male mice; settings: 2 mM in peanut oil, s.c., two times at 24 hour interval; Means ± S.E.
Procedure: Systemic side effects of the compound of the present invention were evaluated according to the following method.
Suspensions of the test compounds (2 mM) in peanut oil were subcutaneously injected into the back of ddY male mice (weight: about 30 gm), 10 mice consisting of a test group, two times, once a day at a 24 hour interval. After 24 hours from the last injection, the mice were sacrificed to extract the thymus and to weigh its weight. For the control group only peanut oil was administered. The results are shown in […]

[2] = system: eosinophiles infiltration; experiment: Anti-allergic activity: FMLP-induced eosinophiles infiltration in trachea; assay type: in vivo, guinea pigs (male); settings: positive control; after 4 hours (so in the source)
Procedure: Test Method of Anti-allergic Activity
To tracheas around the neck of guinea pigs (male; weight 200-300 gm) exposed under anesthesia with Nembutal (0.05 ml/animal, i.p.) were injected FMLP (10^-4 M), which is an inflammation-inducing compound, dissolved in 1% dimethylsulfoxide solution in physiological saline, individually o together with the test compound with a 26 guage needle. For the negative control, only dimethylsulfoxide was injected, and for the positive control betamethasone was administered. […] Eosinophiles infiltrated into the upper, middle, and lower parts of the trachea were counted by microscope. Numbers of eosinophiles found in tracheas to which the test compound was injected were compared with those to which FMLP was independently injected.

SMILES | Dry weight of ganuloma (granuloma) | inhibition at 10000 µM (granuloma) | inhibition at 1000 µM (edema of rat auricle) | survival at 336 h ([1]; dose 1.7 (mg/kg)) | survival at 336 h ([1]; dose 3.3 (mg/kg)) | survival at 336 h ([1]; dose 5 (mg/kg)) | Thymus weight/10 gm body weight (thymus) | eosinophiles infiltration inhibitory effect [2]
CCCCC(=O)O[C@]1(C(=O)CO)[C@@H](C)C[C@H]2[C@@H]3CCC4=CC(=O)C=C[C@]4(C)[C@@]3(F)[C@@H](O)C[C@@]21C [Betamethasone 17-valerate, betamethasone 17-valerate, reference compound] | 15.0 mg | 26.6% | 34% | 100% | 100% | 50% |  | 
C[C@H]1C[C@H]2[C@@H]3CCC4=CC(=O)C=C[C@]4(C)[C@@]3(F)[C@@H](O)C[C@]2(C)[C@@]1(O)C(=O)CO [Betamethasone, betamethasone] |  |  |  |  |  |  | 15.4 ± 1.4 mg | only a small effect
CSCC[C@H](NC=O)C(=O)SCC(=O)[C@@]1(O)[C@@H](C)C[C@H]2[C@@H]3CCC4=CC(=O)C=C[C@]4(C)[C@@]3(F)[C@@H](O)C[C@@]21C [Compound No. 1, 9-Fluoro-21-[2-(formylamino)-4-methylthio-1-oxobutylthio]-11β,17-dihydroxy-16β-methylpregna-1,4-diene-3,20-dione] | 10.7 mg | 47.7% | 44% | 100% | 100% | 100% | 23.4 ± 0.3 mg | 
CSCC[C@H](NC=O)C(=O)SCC(=O)[C@@]12OC(C)(C)O[C@@H]1C[C@H]1[C@@H]3CCC4=CC(=O)C=C[C@]4(C)[C@@]3(F)[C@@H](O)C[C@@]12C [Compound No. 3, 9-Fluoro-21-[2-(formylamino)-4-methylthio-1-oxobutylthio]-11β-hydroxy-16α,17α-isopropylidenedioxypregna-1,4-diene-3,20-dione] |  |  | 74% |  |  |  |  | 
CSCCC(NC=O)C(=O)SCC(=O)[C@@]1(O)[C@H](C)C[C@H]2[C@@H]3CC(F)C4=CC(=O)C=C[C@]4(C)[C@@]3(F)[C@H](O)C[C@@]21C (stereo partly drawn) [Compound No. 5, 6,9-Difluoro-21-[2-(formylamino)-4-methylthio-1-oxobutylthio]-11α,17-dihydroxy-16α-methylpregna-1,4-diene-3,20-dione] |  |  | 74% |  |  |  |  | 
CCCCC(=O)O[C@]1(C(=O)CSC(=O)[C@H](CCSC)NC=O)[C@@H](C)C[C@H]2[C@@H]3CCC4=CC(=O)C=C[C@]4(C)[C@@]3(F)[C@@H](O)C[C@@]21C [Compound No. 6, 9-Fluoro-21-[2-(formylamino)-4-methylthio-1-oxobutylthio]-11β-hydroxy-16β-methyl-17-(1-oxopentyloxy)-pregna-1,4-diene-3,20-dione] | 7.4 mg | 63.9% |  |  |  |  |  | 
C[C@]12CCC(=O)C=C1CC[C@@H]1[C@@H]2[C@@H](O)C[C@@]2(C)[C@H]1CC[C@]2(O)C(=O)CO [Hydrocortisone, hydrocortisone, reference compound] |  |  |  |  |  |  | 20.8 ± 2.1 mg | 
